The test system of one assay is CB2 receptor. Further details: method as in PMID 30639103, PMID 18931146. The note with it: previously reported; cited from earlier work.
For assay [1], the target named is T1, hCB2 (Homo sapiens, UniProt P34972).
T1 construct: purchased PerkinElmer ES111-M400UA; host or cells: CHO-K1 cells stably transfected
Description: [35S]GTPγS binding assay in hCB2-CHO-K1 cell membranes. The class given is biochemical. The note with it: for Emax: read-out: GTPγS binding Emax; for Functional effect on G-protein signaling (pharmacological category) / Reduced basal signaling: hCB2-expressing CHO cell membranes (PerkinElmer). As to the method: Figure 2 Affinity and functional effects of novel MRI ligands on CB2 receptor in CHO cell membranes. (a) binding affinities (nM) and Emax (% and nM) of [^35S]-GTPγS binding to CHO membranes (PerkinElmer, Cat. No ES111-M400UA) expressing hCB2. (b) [^35S]-GTPγS binding to membranes as a factor of ligand concentration. Binding of [^35S]-GTPγS was determined as described in “Methods”. Non-specific binding was defined as 0% activity. The assay of GTPγS non-specific binding contains non-radioactive GTPγS.
[^35S] GTPγS binding was assayed as described earlier[65] with slight modifications. Briefly, hCB2-CHO-K1 cell membranes (4 µg) were incubated with 0.05 nM [^35S] GTPγS, and the indicated concentrations of ligands in TEM buffer (50 mM Tris–HCl, 0.2 mM EGTA, and 9 mM MgCl2, pH 7.4) containing 100 µM GDP, 150 mM NaCl, and 0.1% (w/v) bovine serum albumin in a total volume of 1 ml for 60 min at 30 °C.
For orientation: GTPγS is a poorly hydrolysed GTP analogue; its binding reports G protein activation.

The next assay addresses cannabinoid receptor CB2 (Homo sapiens, UniProt P34972). Description: [35S]GTP nucleotide exchange (GEF) G protein activation assay on CB2 in cell membrane preparations. The class given is biochemical. On the set-up: purchased PerkinElmer; Millipore ChemiScreen; Applied Cell Sciences; Signal Screen (Sf9); E. coli BL21 (DE3) and Expi293F membranes were made in house; ES111-M400UA; A318; 6110130; host or cells: CHO, CHO-K1, Sf9, Expi293F, Expi293F GNTI-, E. coli BL21 (DE3). The settings on record: for Pharmacological category in GEF assay: ligand 2 μM. The text has this:
To better understand the reason for these discrepancies, we assessed the activation of CB2 receptor by the in vitro G protein activation assay that measures the rates of nucleotide exchange on the Gα subunit of G protein (GEF assay) as described previously[33],[34]. The assay reports the rates of formation of the complex of [^35S]-GTPγS, a homolog of GTP, with the Gα subunit of G protein. Typical assay conditions require small (nanogram) quantities of the receptor protein either in cell membranes or reconstituted into lipid bilayers. The readout of the assay is the amount of the non-hydrolysable complex of Gα with [^35S]-GTPγS which, under selected experimental conditions, is proportional to the amount of activated receptor in the assay.
Figure 3 GEF of CB2 expressed in: (a) E. coli membranes and (b) CHO membranes (Millipore EMD). 2 μg of total protein per assay. Each point represents an average of four independent measurements (n = 4). Ligands were added at a concentration of 2 μM to ensure saturation of the receptor, and G protein was added as described in “Methods”. The dotted line indicates the rates of activation of G protein in the absence of a ligand. The rates of activation with […] are set to 100%, and rates of activation in the presence of SR-144,528 to 0%.
Figure 4 GEF on CB2 expressed in different cell lines. An amount of 2 μg of membrane protein per assay was used. Each data points represents an average of four independent measurements (n = 4) with error rates indicated by the bars. 100% represents full activation in the presence of 2 μM of CP-55,940, and 0%–with 2 μM SR-144,528.
The subunits of G protein were expressed and purified as described previously. The nucleotide exchange assay was performed as previously described.

Assay [2] has as its target T1, hCB2. Description: Radioligand ([3H]CP-55,940) displacement binding in hCB2-CHO-K1 cell membranes. The settings on record: hCB2-expressing CHO cell membranes (PerkinElmer), [3H]CP-55,940 displacement; read-out: CB2R binding hCB2R-Ki. Here is the method:
The assay was performed as described previously. […] Plasma membranes were from cultured CHO-K1 cells stably transfected with human CB2R (Perkin Elmer). Two microgram plasma membrane protein was used in a 1 mL reaction mixture. Ki values were derived by computerized curve fitting and using the Cheng-Prusoff equation to account for the affinity of the radioligand, using the GraphPad Prism 8 program (GraphPad Prism Software Inc.).

The next assay relates to microglia. Further details: method as in PMID 16343349. The note with it: cited from earlier work.
For the next assay, the system named is natural killer cells. Further details: method as in PMID 15749836. The settings on record: cited from earlier work.
Where [3] appears, read: CB2 in CHO membranes (EMD Millipore).
The mark [4] stands for this setting: CB2 in E. coli BL21 (DE3) membranes (untreated).

Entries after “also recorded” stand apart in the source; their conditions may differ.

Chain of cannabinoid receptor CB2 (P34972 whole entry): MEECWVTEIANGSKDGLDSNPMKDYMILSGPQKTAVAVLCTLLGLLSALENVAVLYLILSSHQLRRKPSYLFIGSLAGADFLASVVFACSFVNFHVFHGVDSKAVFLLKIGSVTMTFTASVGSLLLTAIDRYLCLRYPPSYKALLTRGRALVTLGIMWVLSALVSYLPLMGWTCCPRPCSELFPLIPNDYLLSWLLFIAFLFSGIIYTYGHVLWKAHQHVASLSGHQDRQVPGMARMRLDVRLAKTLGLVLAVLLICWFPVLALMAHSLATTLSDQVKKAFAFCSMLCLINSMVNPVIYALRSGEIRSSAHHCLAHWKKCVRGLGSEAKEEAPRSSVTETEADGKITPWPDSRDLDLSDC
T1 sequence (P34972 whole entry): as above

In the case of `COCCn1c(C)c(C)s/c1=N\C(=O)C1C(C)(C)C1(C)C` [A-836339, 2,2,3,3-tetramethyl-cyclopropanecarboxylic acid [3-(2-methoxy-ethyl)-4,5-dimethyl-3H-thiazol-(2Z)-ylidene]-amide, reference compound], in the assay with CB2 receptor, the “Activity on the CB2 receptor (category)” value is “agonist”.

As usually defined, the Emax is the size of the effect at its maximum, as opposed to the concentration needed. With `CCCCCCC(C)(C)c1ccc([C@@H]2C[C@H](O)CC[C@H]2CCCO)c(O)c1` [CP55,940, 2-[(1R,2R,5R)-5-Hydroxy-2-(3-hydroxypropyl)cyclohexyl]-5-(2-methyloctan-2-yl)phenol, reference compound], the Emax at hCB2 [1] was 275 ± 4%.

Usually EC50 stands for the concentration needed to bring the measured effect to its halfway point. A low value points to greater potency. Usually Ki stands for a measure of affinity in units of concentration, obtained from inhibition or displacement. In the case of `CC(=O)OCCn1c(C)c(C)s/c1=N\C(=O)C1C(C)(C)C1(C)C` [MRI-2594], the “Pharmacological category in GEF assay” value at cannabinoid receptor CB2 (setting [3]) is “(less-strong) agonist”. Also, the “Pharmacological category in GEF assay” value at cannabinoid receptor CB2 (setting [4]) is given as “full agonist; also recorded: strong agonist”. On hCB2 [1], the EC50 came out at 0.09 nM, the “Functional effect on G-protein signaling (pharmacological category)” value (“Functional effect … (pharmacological category)” below) was “full agonism” and the Emax is 276 ± 4%. For the same compound, the “Activity on the CB2 receptor (category)” value in the assay with CB2 receptor is on record as “agonist”. Moreover, the Ki at hCB2 [2] came out at 0.031 nM.

Take `COc1ccc2c(c1)sc(=NC(=O)C1C(C)(C)C1(C)C)n2CCOC(C)=O` [MRI-2653, 2-(6-Methoxy-2-((2,2,3,3-tetramethylcyclopropane-1-carbonyl)imino)benzo[d]thiazol-3(2H)-yl)ethyl acetate]: at hCB2 [1], the EC50 worked out at 0.5 ± 0.09 nM, the “Functional effect … (pharmacological category)” value was “inverse agonism”, the Reduced basal signaling is listed as 55% and the Emax was -46 ± 2%. Also, the Ki at hCB2 [2] worked out at 0.094 ± 0.011 nM.

Turning to `CC(=O)OCCn1c(=NC(=O)C2C(C)(C)C2(C)C)sc2cc(Br)ccc21` [MRI-2654, 2-(6-Bromo-2-((2,2,3,3-tetramethylcyclopropane-1-carbonyl)imino)benzo[d]thiazol-3(2H)-yl)ethyl acetate], at hCB2 [1], the EC50 turned out to be 0.76 ± 0.04 nM, the “Functional effect … (pharmacological category)” value is “inverse agonism; also recorded: inverse agonist”, the Reduced basal signaling worked out at 55% and the Emax was -23 ± 3%. Further, the Ki at hCB2 [2] was 0.079 ± 0.009 nM.

Turning to `CC(=O)OCCn1c(=NC(=O)C2C(C)(C)C2(C)C)sc2cc(OC(F)(F)F)ccc21` [MRI-2659, 2-(2-((2,2,3,3-tetramethylcyclopropane-1-carbonyl)imino)-6-(trifluoromethoxy)benzo[d]thiazol-3(2H)-yl)ethyl acetate], on cannabinoid receptor CB2 (setting [3]), the “Pharmacological category in GEF assay” value is reported as “strong inverse agonist”. Further, the “Pharmacological category in GEF assay” value on cannabinoid receptor CB2 (setting [4]) is listed as “strong inverse agonist”. Besides, on hCB2 [1], the EC50 was determined as 0.25 ± 0.1 nM, the “Functional effect … (pharmacological category)” value is “inverse agonism”, the Reduced basal signaling was 55% and the Emax is -55 ± 1%. At hCB2 [2], the Ki was found to be 0.053 ± 0.01 nM.

On to `CC(=O)OCCn1c(=NC(=O)C2C(C)(C)C2(C)C)sc2cc(C)ccc21` [MRI-2687, 2-(6-methyl-2-((2,2,3,3-tetramethylcyclopropane-1-carbonyl)imino)benzo[d]thiazol-3(2H)-yl)ethyl acetate], for which, on hCB2 [1], the EC50 turned out to be 1.23 ± 0.09 nM, the “Functional effect … (pharmacological category)” value is recorded as “inverse agonism”, the Reduced basal signaling came to 55% and the Emax is -35 ± 1%. For the same compound, the “Activity on the CB2 receptor (category)” value in the assay with CB2 receptor was “inverse agonist”. Moreover, at hCB2 [2], the Ki came out at 0.1 ± 0.01 nM.

Turning to `CCCCCc1cc(O)c2c(c1)OC(C)(C)[C@@H]1CCC(C)=C[C@@H]21` [THC, Δ^9-tetrahydrocannabinol], the “CB2 activity in suppressing interferon-γ-induced activation of microglia” value in the assay on microglia was “full CB2 agonist”. Further, the “CB2 activity on 2-AG-induced migration of natural killer cells” value with natural killer cells was “no CB2 agonist activity and acted as a CB2 antagonist”.

Take `CC(C)CCC[C@@H](C)[C@H]1CC[C@H]2[C@@H]3CC=C4C[C@@H](O)CC[C@]4(C)[C@H]3CC[C@]12C` [cholesterol]: the “Effect on constitutive (basal) activity of the CB2 receptor” value at cannabinoid receptor CB2 (cell membrane preparations and liposomes) is given as “increases”.

Take “methyl-β-cyclodextrin [MβCD, reference compound]”: the “Effect on rates of activation of G protein on CB2” value on cannabinoid receptor CB2 (Expi293F membranes treated with 20 mM MβCD) is recorded as “decreased by about twofold”.

The record behind these values is PMC7881127, “Cholesterol as a modulator of cannabinoid receptor CB2 signaling” (Scientific Reports, 2021).
